Columns and labels:
HL-60 = test: Differentiation of HL-60 cell line into neutrophil-like cells (CD11b/Mac-1, flow cytometry); type: cell-based, human; settings: co-presence of 1.25% DMSO and AM251 (10 μM), 4 days
Description: Human leukocyte cell line (human acute promyelocytic leukemia cell-derived) HL-60 is known to differentiate into neutrophil-like cells by treatment with DMSO (dimethyl sulfoxide) (Blood, 70, 1233-1244 (1987)). Gene expression analysis based on EXAMPLE 3 confirmed the expression of the TGR25 in the cell line. Accordingly, the action of AM251 as an agonist of the TGR25 for differentiation of the cells was examined.
After HL-60 cells in the growth phase were suspended in 10% fetal calf serum-containing RPMI 1640 medium, the cells were plated on a 12-well tissue culture plate (Becton Dickinson Japan) in 5×10^4 cells/well. […] Degree of cell differentiation was analyzed using a fluorescence-labeled antibody (PE-anti-human CD11b/Mac-1, Becton Dickinson Japan) on a flow cytometry (BD FACSVantage™, Becton Dickinson Japan), in terms of the expression level of a differentiation marker or cell surface antigen CD11b/Mac-1 as an indicator.

[1] = tested on: pAKKO-111H-transfected cells (control); test: SRE-luciferase reporter assay in pAKKO-111H-transfected HeLa cells for control (no receptor); settings: 2 μM
TGR25 = TGR25 (Homo sapiens, UniProt Q86Y34); test: SRE-luciferase reporter assay in HeLa cells transiently expressing TGR25; type: cell-based; settings: for luciferase activity in the TGR25-expressed cells (in words): 20 μM
TGR25, sequence (Q86Y34 21-549): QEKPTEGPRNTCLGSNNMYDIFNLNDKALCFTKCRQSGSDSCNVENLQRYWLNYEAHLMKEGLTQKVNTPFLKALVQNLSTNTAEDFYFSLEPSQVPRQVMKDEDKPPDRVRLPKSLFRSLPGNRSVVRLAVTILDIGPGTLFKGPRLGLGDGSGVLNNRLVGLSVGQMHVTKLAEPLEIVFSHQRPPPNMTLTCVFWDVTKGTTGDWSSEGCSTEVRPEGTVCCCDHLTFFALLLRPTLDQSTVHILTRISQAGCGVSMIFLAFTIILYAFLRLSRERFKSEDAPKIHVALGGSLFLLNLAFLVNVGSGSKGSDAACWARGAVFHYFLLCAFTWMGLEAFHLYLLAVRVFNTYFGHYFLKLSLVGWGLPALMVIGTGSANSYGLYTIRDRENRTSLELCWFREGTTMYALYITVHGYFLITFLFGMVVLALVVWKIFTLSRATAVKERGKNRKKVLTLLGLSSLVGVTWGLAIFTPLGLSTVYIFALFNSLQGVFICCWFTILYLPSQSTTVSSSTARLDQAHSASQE

Increase of Luciferase Activity in TGR25-Expressed Cells by AM281 (cps): TGR25 (TGR25; AM281 20 μM, 4 hours, HeLa cells, 0 μM gave 6113) [cps] | Compound | differentiation of HL-60 into neutrophil-like cells (HL-60) | expression level of CD11b/Mac-1 (differentiation marker) (HL-60; versus DMSO alone) | luciferase activity in the pAKKO-111H-transfected cells for control (in words) [1] | luciferase activity in the TGR25 expression cells (in words) (TGR25; 2 μM) | Increased luciferase activity (cps) in the TGR25 expression cells by AM251: TGR25 (TGR25; AM251 2 μM, 4 hours, HeLa cells, 0 μM gave 7527) [cps] | luciferase activity in the TGR25-expressed cells (in words) (TGR25) | Increase of Luciferase Activity in TGR25-Expressed Cells by DH97 (cps): TGR25 (TGR25; DH97 20 μM, 4 hours, HeLa cells, 0 μM gave 2642) [cps]
– | Cc1c(C(=O)NN2CCCCC2)nn(-c2ccc(Cl)cc2Cl)c1-c1ccc(I)cc1 [AM251, 1-(2,4-dichlorophenyl)-5-(4-iodophenyl)-4-methyl-N-piperidin-1-yl-1H-pyrazole-3-carboxamide] | acts promotively | further increased | any significant increase in the activity was not detected | increased luciferase activity was detected | 17897 | – | –
9279 | Cc1c(C(=O)NN2CCOCC2)nn(-c2ccc(Cl)cc2Cl)c1-c1ccc(I)cc1 [AM281, 1-(2,4-dichlorophenyl)-5-(4-iodophenyl)-4-methyl-N-morpholin-4-yl-1H-pyrazole-3-carboxamide] | – | – | – | – | – | the luciferase activity increased | –
– | CCCCC(=O)NCCc1c(Cc2ccccc2)[nH]c2ccccc12 [DH97, N-[2-(2-benzyl-1H-indol-3-yl)ethyl]pentanamide] | – | – | – | – | – | the luciferase activity increased | 5674

Reference: US7927821B2, “Methods of screening for compounds which bind G protein-coupled receptors” (Takeda Pharmaceutical Company Limited, priority 2004, dated 2011)
